Experimental data from the supplement of paper PMC10307832.

Tests used:
Test in all cases: relative viability (nuclei count vs DMSO), 5 days (fraction); higher = more cells survive
NCI-H441 = system: NCI-H441
In short: (§1)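 After 5 days of treatment, lung cancer cells in 1536-well plates were fixed and stained in a single step (final 0.05% Triton X-100, 1% formaldehyde, 1 ug/ml Hoechst) and their nuclei counted on 4× images. Treatment had been applied by pin tool the day after seeding as one drug alone or as a fixed anchor-drug dose with five library-drug doses (not always all listed) in √10 steps. Relative viability is the nuclei count of treated wells divided by that of vehicle wells, and values are medians of duplicate plates.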

NCI-H23 = system: NCI-H23
In short: as §1

NCI-H3122 = system: NCI-H3122
In short: as §1

NCI-H2405 = system: NCI-H2405
In short: as §1

PC-3 [JPC-3] = system: PC-3 [JPC-3]
In short: as §1

NCI-H647 = system: NCI-H647
In short: as §1

HCC-366 = system: HCC-366
In short: as §1

LXF-289 = system: LXF-289
In short: as §1

ABC-1 = system: ABC-1
In short: as §1

UMC-11 = system: UMC-11
In short: as §1

NCI-H596 = system: NCI-H596
In short: as §1

PC-14 = system: PC-14
In short: as §1

H3255 = system: H3255
In short: as §1

A-427 = system: A-427
In short: as §1

NCI-H1755 = system: NCI-H1755
In short: as §1

LCLC-103H = system: LCLC-103H
In short: as §1

NCI-H1437 = system: NCI-H1437
In short: as §1

NCI-H2347 = system: NCI-H2347
In short: as §1

NCI-H2009 = system: NCI-H2009
In short: as §1

NCI-H2023 = system: NCI-H2023
In short: as §1

NCI-H460 = system: NCI-H460
In short: as §1

COCC1(CO)C(=O)C2CCN1CC2 (centres undefined) [PRIMA-1MET] + Cc1nc(Nc2ncc(C(=O)Nc3c(C)cccc3Cl)s2)cc(N2CCN(CCO)CC2)n1 [Dasatinib] (partner 0.075 µM)
relative viability (NCI-H441; first compound 0.2 µM): 0.461 | relative viability (NCI-H441; first compound 0.6325 µM): 0.728 | relative viability (NCI-H441; first compound 2 µM): 0.544 | relative viability (NCI-H441; first compound 6.325 µM): 0.571 | relative viability (NCI-H441; first compound 20 µM): 0.134 | relative viability (NCI-H23; first compound 0.2 µM): 0.692 | relative viability (NCI-H23; first compound 0.6325 µM): 0.799 | relative viability (NCI-H23; first compound 2 µM): 0.687 | relative viability (NCI-H23; first compound 6.325 µM): 0.721 | relative viability (NCI-H23; first compound 20 µM): 0.221 | relative viability (NCI-H3122; first compound 0.2 µM): 0.382 | relative viability (NCI-H3122; first compound 0.6325 µM): 0.806 | relative viability (NCI-H3122; first compound 2 µM): 0.439 | relative viability (NCI-H3122; first compound 6.325 µM): 0.433 | relative viability (NCI-H3122; first compound 20 µM): 0.856 | relative viability (NCI-H2405; first compound 0.2 µM): 0.197 | relative viability (NCI-H2405; first compound 0.6325 µM): 0.199 | relative viability (NCI-H2405; first compound 6.325 µM): 0.169 | relative viability (NCI-H2405; first compound 20 µM): 0.0902 | relative viability (PC-3 [JPC-3]; first compound 0.2 µM): 0.977 | relative viability (PC-3 [JPC-3]; first compound 0.6325 µM): 0.977 | relative viability (PC-3 [JPC-3]; first compound 2 µM): 0.96 | relative viability (PC-3 [JPC-3]; first compound 6.325 µM): 0.933 | relative viability (PC-3 [JPC-3]; first compound 20 µM): 0.971 | relative viability (NCI-H647; first compound 0.2 µM): 0.165 | relative viability (NCI-H647; first compound 0.6325 µM): 0.16 | relative viability (NCI-H647; first compound 2 µM): 0.156 | relative viability (NCI-H647; first compound 6.325 µM): 0.173 | relative viability (NCI-H647; first compound 20 µM): 0.0339 | relative viability (HCC-366; first compound 0.2 µM): 0.854 | relative viability (HCC-366; first compound 0.6325 µM): 0.527 | relative viability (HCC-366; first compound 2 µM): 0.619 | relative viability (HCC-366; first compound 6.325 µM): 0.67 | relative viability (HCC-366; first compound 20 µM): 0.318 | relative viability (LXF-289; first compound 0.2 µM): 0.277 | relative viability (LXF-289; first compound 0.6325 µM): 0.179 | relative viability (LXF-289; first compound 2 µM): 0.199 | relative viability (LXF-289; first compound 6.325 µM): 0.232 | relative viability (LXF-289; first compound 20 µM): 0.173 | relative viability (ABC-1; first compound 0.2 µM): 0.705 | relative viability (ABC-1; first compound 0.6325 µM): 0.539 | relative viability (ABC-1; first compound 2 µM): 0.58 | relative viability (ABC-1; first compound 6.325 µM): 0.451 | relative viability (ABC-1; first compound 20 µM): 0.279 | relative viability (UMC-11; first compound 0.2 µM): 0.53 | relative viability (UMC-11; first compound 0.6325 µM): 0.466 | relative viability (UMC-11; first compound 2 µM): 0.504 | relative viability (UMC-11; first compound 6.325 µM): 0.464 | relative viability (UMC-11; first compound 20 µM): 0.444 | relative viability (NCI-H596; first compound 0.2 µM): 0.701 | relative viability (NCI-H596; first compound 0.6325 µM): 0.563 | relative viability (NCI-H596; first compound 2 µM): 0.597 | relative viability (NCI-H596; first compound 6.325 µM): 0.79 | relative viability (NCI-H596; first compound 20 µM): 0.147 | relative viability (PC-14; first compound 0.2 µM): 0.249 | relative viability (PC-14; first compound 0.6325 µM): 0.249 | relative viability (PC-14; first compound 2 µM): 0.276 | relative viability (PC-14; first compound 6.325 µM): 0.249 | relative viability (PC-14; first compound 20 µM): 0.0176 | relative viability (H3255; first compound 0.2 µM): 0.285 | relative viability (H3255; first compound 0.6325 µM): 0.439 | relative viability (H3255; first compound 2 µM): 0.487 | relative viability (H3255; first compound 6.325 µM): 0.373 | relative viability (H3255; first compound 20 µM): 0.28 | relative viability (A-427; first compound 0.2 µM): 0.547 | relative viability (A-427; first compound 0.6325 µM): 0.577 | relative viability (A-427; first compound 2 µM): 0.721 | relative viability (A-427; first compound 6.325 µM): 0.602 | relative viability (A-427; first compound 20 µM): 0.15 | relative viability (NCI-H1755; first compound 0.2 µM): 0.476 | relative viability (NCI-H1755; first compound 0.6325 µM): 0.471 | relative viability (NCI-H1755; first compound 2 µM): 0.397 | relative viability (NCI-H1755; first compound 6.325 µM): 0.434 | relative viability (NCI-H1755; first compound 20 µM): 0.423 | relative viability (LCLC-103H; first compound 0.2 µM): 0.566 | relative viability (LCLC-103H; first compound 0.6325 µM): 0.422 | relative viability (LCLC-103H; first compound 2 µM): 0.431 | relative viability (LCLC-103H; first compound 6.325 µM): 0.447 | relative viability (LCLC-103H; first compound 20 µM): 0.342 | relative viability (NCI-H1437; first compound 0.2 µM): 0.435 | relative viability (NCI-H1437; first compound 0.6325 µM): 0.184 | relative viability (NCI-H1437; first compound 2 µM): 0.43 | relative viability (NCI-H1437; first compound 6.325 µM): 0.405 | relative viability (NCI-H1437; first compound 20 µM): 0.286 | relative viability (NCI-H2347; first compound 0.2 µM): 0.766 | relative viability (NCI-H2347; first compound 0.6325 µM): 0.257 | relative viability (NCI-H2347; first compound 2 µM): 0.291 | relative viability (NCI-H2347; first compound 6.325 µM): 0.3 | relative viability (NCI-H2347; first compound 20 µM): 0.37 | relative viability (NCI-H2009; first compound 0.2 µM): 0.298 | relative viability (NCI-H2009; first compound 0.6325 µM): 0.314 | relative viability (NCI-H2009; first compound 2 µM): 0.294 | relative viability (NCI-H2009; first compound 6.325 µM): 0.142 | relative viability (NCI-H2009; first compound 20 µM): 0.0053 | relative viability (NCI-H2023; first compound 0.2 µM): 0.601 | relative viability (NCI-H2023; first compound 0.6325 µM): 0.586 | relative viability (NCI-H2023; first compound 2 µM): 0.567 | relative viability (NCI-H2023; first compound 6.325 µM): 0.57 | relative viability (NCI-H2023; first compound 20 µM): 0.229 | relative viability (NCI-H460; first compound 0.2 µM): 0.495 | relative viability (NCI-H460; first compound 0.6325 µM): 0.321 | relative viability (NCI-H460; first compound 2 µM): 0.511 | relative viability (NCI-H460; first compound 6.325 µM): 0.518 | relative viability (NCI-H460; first compound 20 µM): 0.196
